Assay results reported in patent US20240294478A1, “ANTI-CANCER COMPOUNDS AND METHODS OF USE” (YALE UNIVERSITY, priority 2021, published 2024).

Tests used:
[1] = tested on: linearized pUC19 plasmid DNA; assay: In vitro DNA cross-linking assay; format: biochemical; conditions: 100 μM
Description: Plasmid Linearization Assay. To set up the linearization reactions, 20 units of EcoRI-HF (New England Biolabs) was mixed with 20 μg 2686 bp pUC19 vector DNA in CutSmart buffer (New England Biolabs), pH 7.9, in a total volume of 1000 μL for 30 min at 37° C. The CutSmart buffer contains 50 mM potassium acetate, 20 mM Tris acetate, 10 mM magnesium acetate, and 100 μg/mL BSA. The reacted DNA was then purified using PCR cleanup kit and quantified using the NanoDrop One (Thermo Fisher). The DNA was then stored at −20° C. before use in in vitro DNA cross-linking assays or melting temperature analysis.
In Vitro DNA Cross-linking Assays. Linearized pUC19 DNA, prepared as described above, was used for in vitro DNA cross-linking assays. For each condition, 200 ng of linearized pUC19 DNA (15.4 μM base pairs) was incubated with the indicated concentration of drug in 20 μL. Drug stock concentrations were made in DMSO such that each reaction contained a fixed 5% DMSO concentration. Reactions were conducted in 100 mM Tris buffer (pH 7.4). Cisplatin (Sigma) and DMSO vehicle were used as positive and negative controls, respectively. Reactions were conducted between 3-96 h at 37° C. The DNA was stored at −80° C. until electrophoretic analysis. For gel electrophoresis, DNA concentration was preadjusted to 10 ng/μL. […]

[2] = tested on: PEO4 (BRCA2+) and PEO1 (BRCA2−/−) cells; assay: Short-term viability assay, PEO1/PEO4 model +/- O6BG; format: cell-based, human; conditions: PE01/4 model
Description: FIGS. 8A-8K. (FIG. 8A) Change in percent cells with 1 micronuclei from baseline (DMSO control) after treatment as in FIGS. 5A and 5C. […] (FIG. 8B) Short-term viability assay curves for KL-50 in PD20 cells, deficient in FANCD2 (FANCD2−/−) or complemented with FANCD2 (+FANCD2). (FIG. 8C) Short-term viability assay curves for KL-50 in PEO4 (BRCA2+) and PEO1 (BRCA2−/−) cells pre-treated with 0.01% DMSO control or 10 μM O^6BG (+O^6BG) for 1 h prior to KL-50 addition. (FIG. 8D) Short-term viability assay curves for KL-50 in DLD1 BRCA2+/− and BRCA2−/−cells pre-treated with 0.01% DMSO control or 10 μM O^6BG (+O^6BG) for 1 h prior to KL-50 addition. For FIGS. 8B-8D, points, mean; error bars, SD; n=3 technical replicates. […] The % FANCD2 ubiquitination (% FANCD2 Ub) is quantified as the background-corrected integrated band intensity of the upper band divided by the sum of the background-corrected integrated band intensities of the upper and lower bands. […]
Short-term Cell Viability Assay. […] Cells were imaged on a Cytation 3 imaging reader (BioTek) and quantified using CellProfiler software. For in vitro short-term growth delay experiments, IC50 values were determined from the nonlinear regression equation, [inhibitor] vs normalized response with variable slope.

[3] = tested on: isogenic mouse embryonic fibroblasts (MEFs) proficient or deficient in XPA; assay: Short-term cell viability, XPA proficient or deficient MEFs; format: cell-based; conditions: with or without O6BG-induced MGMT depletion
Description: Columns, mean; error bars, SD; n=2 independent analyses. For (A) and (C), points, mean; error bars, SD; n=3 technical replicates.
The potential for alternative mechanisms of action for KL-50 were probed implicating nucleotide excision repair (NER), base excision repair (BER), reactive oxygen species (ROS), and DNA duplex destabilization.
(§1) Short-term Cell Viability Assay. Cells were seeded in 96-well plates at 1000 or 2000 cells/well and allowed to adhere at 23° C. for 60 min and then incubated overnight at 37° C. Cells were treated with indicated concentrations of compounds in triplicate for 4-6 days prior to fixation with 3.7% paraformaldehyde and nuclear staining with 1 μg/mL Hoechst 33342 dye. Cells were imaged on a Cytation 3 imaging reader (BioTek) and quantified using CellProfiler software. For in vitro short-term growth delay experiments, IC50 values were determined from the nonlinear regression equation, [inhibitor] vs normalized response with variable slope.

[4] = tested on: DLD1 BRCA2+/− and BRCA2−/− cells; assay: Short-term viability assay, DLD1 BRCA2 isogenic model +/- O6BG; format: cell-based, human
Description: FIGS. 8A-8K. (FIG. 8A) Change in percent cells with 1 micronuclei from baseline (DMSO control) after treatment as in FIGS. 5A and 5C. […] (FIG. 8B) Short-term viability assay curves for KL-50 in PD20 cells, deficient in FANCD2 (FANCD2−/−) or complemented with FANCD2 (+FANCD2). (FIG. 8C) Short-term viability assay curves for KL-50 in PEO4 (BRCA2+) and PEO1 (BRCA2−/−) cells pre-treated with 0.01% DMSO control or 10 μM O^6BG (+O^6BG) for 1 h prior to KL-50 addition. (FIG. 8D) Short-term viability assay curves for KL-50 in DLD1 BRCA2+/− and BRCA2−/−cells pre-treated with 0.01% DMSO control or 10 μM O^6BG (+O^6BG) for 1 h prior to KL-50 addition. For FIGS. 8B-8D, points, mean; error bars, SD; n=3 technical replicates. […] Change in percent cells with 1 micronuclei from baseline (DMSO control) after treatment with olaparib (10 μM) for 48 h in LN229 MGMT+/−, MMR+/−cells. […] Western blot analysis of FANCD2 ubiquitination in LN229 MGMT+/−, MMR+/−cells and PD20 FANCD2-deficient cells, complemented with empty vector (FANCD2+EV), wildtype FANCD2 (PD20+FD2) or ubiquitination-mutant FANCD2 (PD20+KR). The % FANCD2 ubiquitination (% FANCD2 Ub) is quantified as the background-corrected integrated band intensity of the upper band divided by the sum of the background-corrected integrated band intensities of the upper and lower bands. The fold change in % FANCD2 ubiquitination is presented for each cell line relative to DMSO-treated cells. Vinculin serves as loading control. For 8J-8K, points, mean; error bars, SD; n=3 technical replicates.
as §1, with “Cells were treated with indicated concentrations of compounds in triplicate for 4-6 days prior to fixation with 3.7% paraformaldehyde and nuclear staining with 1 μg/mL Hoechst 33342 dye.” left out

For `NC(=O)c1ncn2c(=O)n(CCF)nnc12` [KL-50], the “ICLs in plasmid DNA” value [1] was “possessed ICLs, with delayed rates of formation”, the “therapeutic index (TI)” value [2] was 62 fold and the “sensitivity of XPA-deficient vs proficient MEFs” value [3] was “no differential sensitivity”. The “therapeutic index (TI), ratio of IC50 values in MGMT+/BRCA2+ cells compared to MGMT−/BRCA2− cells” value ([4]; DLD1 isogenic model) was about 600 fold and the “effect of BRCA2 loss on toxicity” value ([4]; two MGMT-proficient cell models, following MGMT depletion via O6BG) was “BRCA2 loss enhanced the toxicity”.
